{"source": "patent US20160326142A1", "about": "“PYRAZOLE CARBOXAMIDE COMPOUNDS, COMPOSITIONS AND METHODS OF USE” (Genentech, Inc., priority 2012, published 2016)", "data": [{"molecular_target": "T1, ITK (Homo sapiens, UniProt Q08881)", "T1 construct": "purchased Invitrogen PV3875", "T1 sequence (Q08881 1-620)": "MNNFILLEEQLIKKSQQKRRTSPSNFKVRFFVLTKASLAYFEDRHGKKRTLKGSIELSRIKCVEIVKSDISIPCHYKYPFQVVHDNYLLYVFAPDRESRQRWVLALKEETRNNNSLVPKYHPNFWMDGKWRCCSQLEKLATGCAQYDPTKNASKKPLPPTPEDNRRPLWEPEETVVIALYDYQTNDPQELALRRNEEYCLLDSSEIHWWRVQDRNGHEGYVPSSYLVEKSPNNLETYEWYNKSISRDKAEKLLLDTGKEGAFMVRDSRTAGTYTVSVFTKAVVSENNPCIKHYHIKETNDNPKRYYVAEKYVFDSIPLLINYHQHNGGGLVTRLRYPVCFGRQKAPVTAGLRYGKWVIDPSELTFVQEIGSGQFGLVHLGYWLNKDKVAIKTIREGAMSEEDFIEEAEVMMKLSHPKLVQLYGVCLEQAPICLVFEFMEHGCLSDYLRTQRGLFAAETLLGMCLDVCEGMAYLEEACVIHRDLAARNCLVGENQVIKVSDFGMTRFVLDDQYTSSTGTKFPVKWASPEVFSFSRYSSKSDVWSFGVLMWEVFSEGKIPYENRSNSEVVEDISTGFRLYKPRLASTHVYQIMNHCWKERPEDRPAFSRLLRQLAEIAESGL", "experiment": "ITK enzyme assay (Caliper or LCMS peptide phosphorylation)", "assay_type": "biochemical", "details": "purified ITK (Invitrogen PV3875), 20 μM ATP, Ki by Morrison's quadratic equation", "summary_of_the_method": "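Ki values come from Morrison quadratic fits of activity versus inhibitor concentration, adjusted for ATP-competitive inhibition against ATP/Km,app. Substrate and phosphopeptide from purified ITK reactions were resolved either microfluidically (Caliper, EDTA stop) or by LC-MS MRM (TCA stop).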", "units": {"Ki": "nM"}, "values": [{"smiles": "CN(CCC(c1ccccc1)n1cc(NC(=O)c2n[nH]c3c2CCC(C)(C)C3)cn1)C1COC1", "note": "(single isomer, unassigned) [Example 58a, 6,6-dimethyl-N-(1-(3-(methyl(oxetan-3-yl)amino)-1-phenylpropyl)-1H-pyrazol-4-yl)-4,5,6,7-tetrahydro-1H-indazole-3-carboxamide]", "Ki": 7}, {"smiles": "CC1(C)CCc2c(C(=O)Nc3cnn(C(c4ccccc4)C4CCN(CCF)CC4)c3)n[nH]c2C1", "note": "(single isomer, unassigned) [Example 63b, N-(1-((1-(2-fluoroethyl)piperidin-4-yl)(phenyl)methyl)-1H-pyrazol-4-yl)-6,6-dimethyl-4,5,6,7-tetrahydro-1H-indazole-3-carboxamide]", "Ki": 1}, {"smiles": "CC1CC(C(c2ccccc2)n2cc(NC(=O)c3n[nH]c4c3CCC(C)(C)C4)cn2)CCS1(=O)=O", "note": "(single isomer, unassigned) [Example 139f, 6,6-dimethyl-N-(1-((2-methyl-1,1-dioxidotetrahydro-2H-thiopyran-4-yl)(phenyl)methyl)-1H-pyrazol-4-yl)-4,5,6,7-tetrahydro-1H-indazole-3-carboxamide]", "Ki": 0.6}, {"smiles": "CC(c1cnn(C)c1)n1cc(NC(=O)c2n[nH]c3c2CCC(C)(C)C3)cn1", "note": "(single isomer, unassigned) [Example 91b, 6,6-dimethyl-N-(1-(1-(1-methyl-1H-pyrazol-4-yl)ethyl)-1H-pyrazol-4-yl)-4,5,6,7-tetrahydro-1H-indazole-3-carboxamide]", "Ki": 19}, {"smiles": "CC1CC(C(c2ccccc2)n2cc(NC(=O)c3n[nH]c4c3CCC(C)(C)C4)cn2)CCS1(=O)=O", "note": "(single isomer, unassigned) [Example 139g, 6,6-dimethyl-N-(1-((2-methyl-1,1-dioxidotetrahydro-2H-thiopyran-4-yl)(phenyl)methyl)-1H-pyrazol-4-yl)-4,5,6,7-tetrahydro-1H-indazole-3-carboxamide]", "Ki": 8}, {"smiles": "CN(C)CCC(c1ccccc1)n1cc(NC(=O)c2n[nH]c3c2CC2CC2(C)C3)cn1", "note": "(single isomer, unassigned) [Example 52d, N-(1-(3-(dimethylamino)-1-phenylpropyl)-1H-pyrazol-4-yl)-5a-methyl-1,4,4a,5,5a,6-hexahydrocyclopropa[f]indazole-3-carboxamide]", "Ki": 100}, {"smiles": "CC12Cc3c(C(=O)Nc4cnn(C(c5ccccc5)C5CCS(=O)(=O)CC5)c4)n[nH]c3C1C2", "note": "(single isomer, unassigned) [Example 152b, N-(1-((1,1-dioxidotetrahydro-2H-thiopyran-4-yl)(phenyl)methyl)-1H-pyrazol-4-yl)-4a-methyl-4,4a,5,5a-tetrahydro-1H-cyclopropa[4,5]cyclopenta[1,2-c]pyrazole-3-carboxamide]", "Ki": 3}, {"smiles": "CC1(C)CCc2c(C(=O)Nc3cnn(C(c4ccccc4)C4CS(=O)(=O)CCN4)c3)n[nH]c2C1", "note": "(centres unmarked) [Example 128a, N-(1-((1,1-dioxidothiomorpholin-3-yl)(phenyl)methyl)-1H-pyrazol-4-yl)-6,6-dimethyl-4,5,6,7-tetrahydro-1H-indazole-3-carboxamide]", "Ki": 42}, {"smiles": "CC12Cc3[nH]nc(C(=O)Nc4cnn(C(c5cccnc5)C5CC[S+]([O-])CC5)c4)c3CC1C2", "note": "(single isomer, unassigned) [Example 146b, 5a-methyl-N-(1-((1-oxidotetrahydro-2H-thiopyran-4-yl)(pyridin-3-yl)methyl)-1H-pyrazol-4-yl)-1,4,4a,5,5a,6-hexahydrocyclopropa[f]indazole-3-carboxamide]", "Ki": 2}, {"smiles": "CC1(C)CCc2c(C(=O)Nc3cnn(C(CS(C)(=O)=O)c4cccnc4)c3)n[nH]c2C1", "note": "(single isomer, unassigned) [Example 73a, 6,6-dimethyl-N-(1-(2-(methylsulfonyl)-1-(pyridin-3-yl)ethyl)-1H-pyrazol-4-yl)-4,5,6,7-tetrahydro-1H-indazole-3-carboxamide]", "Ki": 0.7}, {"smiles": "CC1(C)CCc2c(C(=O)Nc3cnn(C(CN4CCOCC4)c4ccccc4)c3)n[nH]c2C1", "note": "(single isomer, unassigned) [Example 62a, 6,6-dimethyl-N-(1-(2-morpholino-1-phenylethyl)-1H-pyrazol-4-yl)-4,5,6,7-tetrahydro-1H-indazole-3-carboxamide]", "Ki": 3}, {"smiles": "CC1(C)CCc2c(C(=O)Nc3cnn(C(c4nccs4)C4CCSCC4)c3)n[nH]c2C1", "note": "(single isomer, unassigned) [Example 85a, 6,6-dimethyl-N-(1-((tetrahydro-2H-thiopyran-4-yl)(thiazol-2-yl)methyl)-1H-pyrazol-4-yl)-4,5,6,7-tetrahydro-1H-indazole-3-carboxamide]", "Ki": 0.6}, {"smiles": "CC1(C)CCc2c(C(=O)Nc3cnn(C(CO)c4cccnc4)c3)n[nH]c2C1", "note": "(single isomer, unassigned) [Example 81b, N-(1-(2-hydroxy-1-(pyridin-3-yl)ethyl)-1H-pyrazol-4-yl)-6,6-dimethyl-4,5,6,7-tetrahydro-1H-indazole-3-carboxamide]", "Ki": 3}, {"smiles": "CC[C@@H](c1ccccc1)n1cc(NC(=O)c2n[nH]c3c2CC2CC2C3)cn1", "note": "(single isomer, unassigned) [Example 24b]", "Ki": 3.5}, {"smiles": "COc1ccc(C(C)n2cc(NC(=O)c3n[nH]c4c3CCC(C)(C)C4)cn2)cn1", "note": "(single isomer, unassigned) [Example 109a, N-(1-(1-(6-methoxypyridin-3-yl)ethyl)-1H-pyrazol-4-yl)-6,6-dimethyl-4,5,6,7-tetrahydro-1H-indazole-3-carboxamide]", "Ki": 4}, {"smiles": "Cn1ccnc1C(c1cccs1)n1cc(NC(=O)c2n[nH]c3c2CCC(C)(C)C3)cn1", "note": "(single isomer, unassigned) [Example 114b, 6,6-dimethyl-N-(1-((1-methyl-1H-imidazol-2-yl)(thiophen-2-yl)methyl)-1H-pyrazol-4-yl)-4,5,6,7-tetrahydro-H-indazole-3-carboxamide]", "Ki": 12}, {"smiles": "Cc1cccc(C(C2CNC2)n2cc(NC(=O)c3n[nH]c4c3CCC(C)(C)C4)cn2)c1", "note": "(single isomer, unassigned) [Example 47b, N-(1-(azetidin-3-yl(m-tolyl)methyl)-1H-pyrazol-4-yl)-6,6-dimethyl-4,5,6,7-tetrahydro-1H-indazole-3-carboxamide]", "Ki": 9}, {"smiles": "CC12Cc3c(C(=O)Nc4cnn(Cc5ccccc5)c4)n[nH]c3C1C2", "note": "(single isomer, unassigned) [Example 151a, N-(1-benzyl-1H-pyrazol-4-yl)-4a-methyl-4,4a,5,5a-tetrahydro-1H-cyclopropa[4,5]cyclopent a[1,2-c]pyrazole-3-carboxamide]", "Ki": 16}, {"smiles": "N#Cc1cccc(Cn2cc(NC(=O)c3n[nH]c4c3CC(c3cn[nH]c3)CC4)cn2)c1", "note": "(single isomer, unassigned) [Example 2b, N-(1-(3-cyanobenzyl)-1H-pyrazol-4-yl)-5-(1H-pyrazol-4-yl)-4,5,6,7-tetrahydro-1H-indazole-3-carboxamide]", "Ki": 34}, {"smiles": "CC1(N2CCOCC2)CCc2c(C(=O)Nc3cnn(Cc4ccccc4)c3)n[nH]c2C1", "note": "(single isomer, unassigned) [Example 149a, N-(1-benzyl-1H-pyrazol-4-yl)-6-methyl-6-morpholino-4,5,6,7-tetrahydro-1H-indazole-3-carboxamide]", "Ki": "> 400"}, {"smiles": "CC[C@@H](c1ccccc1)n1cc(NC(=O)c2n[nH]c3c2C2CC2CC3)cn1", "note": "(single isomer, unassigned) [Example 25a]", "Ki": 1.7}, {"smiles": "CC1(C)Cc2[nH]nc(C(=O)Nc3cnn(Cc4ccccc4)c3)c2CC1CO", "note": "(single isomer, unassigned) [Example 95b, N-(1-benzyl-1H-pyrazol-4-yl)-5-(hydroxymethyl)-6,6-dimethyl-4,5,6,7-tetrahydro-1H-indazole-3-carboxamide]", "Ki": 320}, {"smiles": "CC1(C)CCc2c(C(=O)Nc3cnn(C(c4ccccc4)C4CCN(S(C)(=O)=O)CC4)c3)n[nH]c2C1", "note": "(single isomer, unassigned) [Example 67b, 6,6-dimethyl-N-(1-((1-(methylsulfonyl)piperidin-4-yl)(phenyl)methyl)-1H-pyrazol-4-yl)-4,5,6,7-tetrahydro-1H-indazole-3-carboxamide]", "Ki": 3}, {"smiles": "CN(C)CCC(c1ccccc1)n1cc(NC(=O)c2n[nH]c3c2CCC2(COC2)C3)cn1", "note": "(single isomer, unassigned) [Example 15a, N-(1-(3-(dimethylamino)-1-phenylpropyl)-1H-pyrazol-4-yl)-1,4,5,7-tetrahydrospiro[indazole-6,3′-oxetane]-3-carboxamide]", "Ki": 11}, {"smiles": "CC(c1cncc(F)c1)n1cc(NC(=O)c2n[nH]c3c2CCC(C)(C)C3)cn1", "note": "(single isomer, unassigned) [Example 108a, N-(1-(1-(5-fluoropyridin-3-yl)ethyl)-1H-pyrazol-4-yl)-6,6-dimethyl-4,5,6,7-tetrahydro-1H-indazole-3-carboxamide]", "Ki": 17}, {"smiles": "CC(c1cscn1)n1cc(NC(=O)c2n[nH]c3c2CCC(C)(C)C3)cn1", "note": "(single isomer, unassigned) [Example 84a, 6,6-dimethyl-N-(1-(1-(thiazol-4-yl)ethyl)-1H-pyrazol-4-yl)-4,5,6,7-tetrahydro-1H-indazole-3-carboxamide]", "Ki": 46}]}]}
